According to patent US6346373B1, “Whole cell assay for cathepsin K activity” (Merck Frosst Canada & Co.,, priority 1999, dated 2002):
Entries after “also recorded” stand apart in the source; their conditions may differ.

How the values were obtained:
[1] = biological target: T1, intracellular cathepsin K in hCat K expressing CHO cells (Homo sapiens, UniProt P43235); test: Whole cell assay for cathepsin K in hCat K expressing CHO cells in presence of cystatin and SBTI; type: cell-based; conditions: hCat K expressing cells in HBSS pH 7.4, 15 mM Hepes, 20 μg/ml cystatin, 100 μg/ml SBTI; 15 min preincubation, 5 μM Z-Leu-Arg-Rhodamine
T1 construct: expressed in transfected cells
T1 sequence (P43235 115-329): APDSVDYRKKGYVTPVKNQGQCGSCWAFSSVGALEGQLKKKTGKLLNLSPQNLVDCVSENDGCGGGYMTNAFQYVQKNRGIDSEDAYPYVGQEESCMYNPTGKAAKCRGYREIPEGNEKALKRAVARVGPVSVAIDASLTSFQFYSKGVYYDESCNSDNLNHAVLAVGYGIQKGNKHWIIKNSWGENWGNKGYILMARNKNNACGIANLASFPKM
Procedure: Unless otherwise indicated, cathepsin K activity in intact cells is conducted by challenging the cells with 5 μM of the substrate [Z-Leu-Arg]2-rhodamine in the presence of cystatin and SBTI. Using sterile 96-wells culture plates (Nunc, DK, Denmark), 50,000 mock or Cat K expressing stable cell lines are dispensed into each well and incubated for 24 h. Using the Skanwasher 300 plate washer (Skatron, VA, USA) the cells are washed twice with PBS containing Ca^2+ and Mg^2+. Then, pre-incubated for 15 min at room temperature in 200 μl HBSS (Hank's buffered saline solution), pH 7.4, supplemented with 15 mM Hepes, 20 μg/ml cystatin (Calbiochem, CA, USA) and 100 μg/ml soybean trypsin inhibitor (Sigma, ON, Canada). The pre-incubated cells are then challenged with the addition of 2 μl of [Z-Leu-Arg]2-rhodamine (500 μM stock solution in DMSO to a final 5 μM concentration). Substrate hydrolysis is monitored at room temperature in a Cytofluor 4000 fluorescent plate reader (Perseptive Biosystems, MA, USA).
(§1) Stable mock or hCat K expressing cells are resuspended in HBSS, pH 7.4 supplemented with 15 mM Hepes, 20 μg/ml cystatin and 100 μg/ml SBTI. Pure cathepsin K enzyme is resuspended in buffer A. Enzyme suspensions are preincubated with the designated inhibitor for 15 min before initiating the reaction with 5 μM of the substrate Z-Leu-Arg-Rhodamine.

purified cathepsin K = biological target: T2, purified cathepsin K (Homo sapiens, UniProt P43235); test: Pure cathepsin K enzyme assay, hydrolysis of Z-Leu-Arg-Rhodamine in buffer A; type: biochemical; conditions: 15 min preincubation; for IC50: pure cathepsin K in buffer A, 5 μM Z-Leu-Arg-Rhodamine, read-out: IC50 Pure Cat K
T2 construct: Standards (10 ng) of human mature cathepsin K (pure Cat k mature)
T2 sequence (P43235 115-329): T1 sequence (P43235 115-329)
Procedure: (§2) The rate of substrate hydrolysis is determined in supernatants from extracts of mock and cathepsin K expressing cells (5 μg/ml of total cell protein in buffer A) and a suspension of pure cathepsin K enzyme (3 nM resuspended in buffer A), in the presence of different concentrations of cystatin. Suspensions are preincubated with cystatin for 15 min, then the reaction is initiated with the addition of the substrate (5 μM Z-Leu-Arg-Rhodamine). Each data point is an average of duplicates and is reported as a percentage of inhibition of the control reaction.
(§3) The enzymatic activity of purified cathepsin K (3 nM) and transfectants' supernatants (5 μg/ml of protein) is determined by following the rate of hydrolysis of different peptide substrates conjugated to either AMC or rhodamine.
Assays are performed at room temperature in 200 μl of buffer A [50 mM MES (2-(N-morpholino)ethanesulfonic acid) buffer, pH 5.5, containing 2.5 mM EDTA, 2.5 mM dithiothreitol, 10% DMSO]. Substrate hydrolysis is monitored over a period of 10 min at room temperature in a Cytofluor 4000 fluorescent plate reader (Perseptive Biosystems, MA, USA). Cathepsin K activity measurements are calculated as initial rates over the first 5 min of the reaction.
as §1

bone resorption = conditions: Delaisse et al., 1987; cited from earlier work
[2] = Cell permeability tested in CACO-2 cells; type: in vitro ADME; conditions: unpublished results
[3] = system: extracellular protease activity of whole hCat K cells; test: Effect of cell-impermeable protease inhibitors on Z-Leu-Arg-Rhodamine hydrolysis by whole hCat K cells (FIG. 5); type: cell-based; conditions: cystatin 20 μg/ml, EDTA 1 mM, SBTI 100 μg/ml, pepstatin A 0.7 μg/ml; 5 μM Z-Leu-Arg-Rhodamine (FIG. 5)
Procedure: Cells are seeded in sterile 96-wells cell culture plates, grown for 24 h and then washed twice with PBS. Into each well, HBSS pH 7.4 containing 15 mM Hepes is added. The rate of substrate hydrolysis is determined in the presence of the designated protease inhibitors. Cells are preincubated with an inhibitor for 15 min, then the reaction initiated with the addition of the substrate, 5 μM Z-Leu-Arg-Rhodamine. […] The reported enzymatic activities constitute the initial rate of substrate hydrolysis and each data point is an average of duplicates.
To determine the effect of different inhibitors on cathepsin K activity, mock and hCat K whole cells are preincubated with 1 μl of vehicle (control) or an inhibitor for 15 min at room temperature followed by the addition of the substrate. All inhibitors are prepared as stock solutions in DMSO (dimethylsulfoxide) and assays performed with a final DMSO concentration of 1.5%.
Mock and hCat K cells are plated into 96 well tissue culture plates as described in materials and methods and the activity is determined using the Z-Leu-Arg-rhodamine substrate. […]

[4] = biological target: T3, recombinant cathepsin K expressed by the CHO tranfectants (hCat K extract) (Homo sapiens, UniProt P43235); test: Enzyme assay in hCat K CHO cell extract supernatant, hydrolysis of Z-Leu-Arg-rhodamine; type: biochemical; conditions: 5 μg/ml total cell protein in buffer A, 15 min preincubation, 5 μM substrate (FIG. 4)
T3 construct: expressed in transfected cells
T3 sequence (P43235 115-329): T1 sequence (P43235 115-329)
Procedure: as §2
Cultured tranfectants are pelleted, resuspended in PBS and sonicated for 3×10 s using a Kontes Ultrasonic Disrupter. […] Protein concentrations are determined on all the supernatants using the Pierce Coomassie Protein Reagent (Pierce, Ill. USA) as described in the manufacturer's instruction.
as §3
Assays are performed at room temperature in 200 μl of buffer A [50 mM MES (2-(N-morpholino)ethanesulfonic acid) buffer, pH 5.5, containing 2.5 mM EDTA, 2.5 mM dithiothreitol, 10% DMSO]. […] Cathepsin K activity measurements are calculated as initial rates over the first 5 min of the reaction. […]

[5] = biological target: recombinant human cathepsin K expressed in CHO cells stably transfected with pcDNA3.1/hCat K (human) (UniProt P43235); test: cell-based or functional assay
[6] = biological target: human mature cathepsin K (purified enzyme) (human) (UniProt P43235); test: cell-based or functional assay
[7] = biological target: T4, intracellular cathepsin K in hCat K cells (Homo sapiens, UniProt P43235); test: Flow cytometry (FACS) analysis of hCat K CHO cells with [Z-Leu-Arg]2-rhodamine; type: cell-based; conditions: 5 μM Z-Leu-Arg-Rho, cystatin and SBTI present (FIG. 8C)
T4 construct: expressed in transfected cells
T4 sequence (P43235 115-329): T1 sequence (P43235 115-329)
Procedure: FIGS. 8A-8C show the results of the flow cytometry analysis of mock and hCat K expressing CHO cells. Pelleted cells are resuspended in Ca^2+ and Mg^2+ free PBS containing 20 μg/ml cystatin and 100 μg/ml SBTI. After a preincubation of 15 min at […], the substrate, 5 μM Z-Leu-Arg-rhodamine is added. Flow cytometry analysis is performed after a 15 min incubation at 37° C. with the substrate.
Stable mock or hCat K cell lines are trypsinized and resuspended at a density of 1 million cells/ml in Ca^2+ and Mg^2+ free PBS, 20 μg/ml cystatin and 100 μg/ml soybean trypsin inhibitor. Cells are preincubated for 15 min at 37° C. in the presence of vehicle or an inhibitor followed by the addition of the substrate, [Z-Leu-Arg]2-rhodamine (5 μM). Flow cytometry analysis is performed using a FACSCalibur system (Becton Dickinson, CA, USA) equipped with a CellQuest software. Voltage and fluorescence compensation adjustments are performed before each experiment using CaliBRITE beads (Becton Dickinson, CA, USA) and the FACSComp software (Becton Dickinson, CA, USA). A minimum of 10,000 events is collected for each sample. Cells are gated to exclude cell debris and abnormally large or aggregated cells.

**Q.** For `CC(C)C[C@H](NC(=O)C1OC1C(=O)O)C(=O)NCCCCNC(=N)N` (stereo partly drawn) [Inhibitor E64, trans-epoxysuccinyl-L-leucylamide-(4-guanidino) butane], which IC50 [1] is on record?
**A.** 576 nM

**Q.** And the IC50 (purified cathepsin K)?
**A.** 30 nM

**Q.** What about the “Inhibition of bone resorption” value (bone resorption) of the same compound?
**A.** effective in inhibiting bone resorption

**Q.** With cystatin [listing 1 of 2 here] as the compound, how does the Cell permeability [2] read?
**A.** does not permeate into cells

**Q.** And the “IC50 on hydrolysis of Z-Leu-Arg-rhodamine by purified cathepsin K” value (purified cathepsin K; 3 nM pure enzyme in buffer A, 5 μM substrate (FIG. 4))?
**A.** 0.2 µg/mL

**Q.** And the “Effect on protease activity in whole hCat K cells” value [3]?
**A.** decrease in protease activity; also recorded: effective inhibitor of extracellular cathepsin K activity

**Q.** And the “IC50 on hydrolysis of Z-Leu-Arg-rhodamine by hCat K extract” value [4]?
**A.** 0.09 µg/mL

**Q.** Which IC50, inhibition of the rate of hydrolysis of Z-Leu-Arg-rhodamine [5] does the source give for cystatin [listing 2 of 2 here] here?
**A.** 0.09 µg/mL

**Q.** And the IC50, inhibition of the rate of hydrolysis of Z-Leu-Arg-rhodamine [6]?
**A.** 0.2 µg/mL

**Q.** Which “Effect on increase in fluorescence in hCat K cells” value [7] does the source give for `CCOC(=O)[C@H]1O[C@@H]1C(=O)N[C@@H](CC(C)C)C(=O)NCCC(C)C` [Inhibitor E64d] here?
**A.** inhibited; also recorded: repressed

**Q.** Which IC50 [1] does the source give for `CC(C)CCNC(=O)[C@H](CC(C)C)NC(=O)[C@H]1O[C@@H]1C(=O)O` [Inhibitor E64c] here?
**A.** 307 nM

**Q.** And the IC50 (purified cathepsin K)?
**A.** 41 nM
